# Results published in article PMC9184463, “Structural basis of ligand binding modes of human EAAT2” (Nature Communications, 2022).
# Assays:
# wild-type hEAAT2 = molecular target: T1, wild-type hEAAT2 (Homo sapiens, UniProt P43004); assay: whole-cell patch-clamp of hEAAT2-associated anion current, wild-type hEAAT2 in HEK293T cells; type: cell-based
# T1 construct: Strep Tag II (N); superfolder GFP (sfGFP) (N); expressed in transfected cells; host or cells: HEK293T
# Method: (§1) Human embryonic kidney 293T (HEK293T) cells were cultured in Dulbecco’s Modified Eagle Medium (DMEM, Gibco) media supplemented with 15% (v/v) fetal bovine serum (FBS, PAN-Biotech) at 37 °C with 5% CO2. HEK293T cells were grown in the culture dishes (d = 3.5 cm) (Thermo Fisher Scientific) for 24 h and then 1 μg hEAAT2 wild-type and mutant plasmids for per dishes were used to transiently transfect HEK293T using 0.7 μg Lipofectamine 2000 Reagent (Thermo Fisher Scientific). Cells were analyzed using electrophysiological experiments between 24 and 40 h after transfection at room temperature (21–25 °C).
# (§2) Electrophysiological experiments were performed as described previously with a minor modification. External buffer contained 140 mM NaCl, 2 mM MgCl2, 2 mM CaCl2, and 10 mM HEPES (pH = 7.4 with NaOH and osmolarity of ∼310 mosmol L^−1) and while internal pipette solution comprised of 130 mM NaSCN, 2 mM MgCl2, 10 mM EGTA, 10 mM HEPES (pH = 7.4 with NaOH and osmolarity of ∼310 mosmol L^−1) and 10 mM glutamate. 50 mM WAY-213613 stock solutions were prepared in dimethyl sulfoxide (DMSO), followed by dilutions to working concentrations with the above-mentioned external buffer. […] Whole cell patch-clamp experiment recordings were made from isolated GFP-positive HEK293T cells (hEAAT2 wild type and mutants). In all, 3–6 MΩ was used to fire a polished pipette (Sutter Instrument). […] Cells were immersed in the above-mentioned external buffer supplemented with a specified concentration of glutamate or WAY-213613. Glutamate-induced anion current, Na^+-dependent anion leak current and glutamate transport current or WAY-213613 inhibited anion leak currents were recorded using an EPC-10 amplifier (HEKA Electronic) at a 20 kHz sample rate with low pass filter at 5 kHz. All experiments were executed at 0 mV. After the cell current was stabilized, glutamate or WAY-213613 was sustained at the indicated concentrations from external dosing for at least 6 s. Subsequently, the cell was washed away with external buffer to start a new round of applications or end the experiment. The plateau currents were used for the following calculations. For analysis, the data was acquired by PatchMaster program (HEKA Electronic) at 5 s after recording. Nonlinear dose–response relationships were fitted into a Michaelis–Menten-like equation shown as below to obtain the apparent Km and Ki values in the presence of glutamate or WAY-213613.1 I/Imax=Km/i/C+Km/i In this equation, I represent the current at different glutamate or inhibitor concentrations, and Imax represents the maximal current at the saturating concentration of glutamate or inhibitor. [C] represents the concentration of glutamate or inhibitor. Km/i represents the apparent constant.
# hEAAT3 = test system: hEAAT3; design: method as in PMID: 7521911; details: ref PMID: 7521911; cited from earlier work
# hEAAT1 = details: ref PMID: 7521911; cited from earlier work
# hEAAT2 mutant S441G = molecular target: T2, hEAAT2 mutant S441G (Homo sapiens, UniProt P43004, S441G); assay: whole-cell patch-clamp, hEAAT2 mutant S441G in HEK293T cells; type: cell-based; details: 0 mV; for glutamate-induced current, normalized (MEAN): S441G, normalized to maximal current
# T2 construct: Strep Tag II (N); superfolder GFP (sfGFP) (N); expressed in transfected cells; host or cells: HEK293T
# T2 sequence (P43004 whole entry S441G): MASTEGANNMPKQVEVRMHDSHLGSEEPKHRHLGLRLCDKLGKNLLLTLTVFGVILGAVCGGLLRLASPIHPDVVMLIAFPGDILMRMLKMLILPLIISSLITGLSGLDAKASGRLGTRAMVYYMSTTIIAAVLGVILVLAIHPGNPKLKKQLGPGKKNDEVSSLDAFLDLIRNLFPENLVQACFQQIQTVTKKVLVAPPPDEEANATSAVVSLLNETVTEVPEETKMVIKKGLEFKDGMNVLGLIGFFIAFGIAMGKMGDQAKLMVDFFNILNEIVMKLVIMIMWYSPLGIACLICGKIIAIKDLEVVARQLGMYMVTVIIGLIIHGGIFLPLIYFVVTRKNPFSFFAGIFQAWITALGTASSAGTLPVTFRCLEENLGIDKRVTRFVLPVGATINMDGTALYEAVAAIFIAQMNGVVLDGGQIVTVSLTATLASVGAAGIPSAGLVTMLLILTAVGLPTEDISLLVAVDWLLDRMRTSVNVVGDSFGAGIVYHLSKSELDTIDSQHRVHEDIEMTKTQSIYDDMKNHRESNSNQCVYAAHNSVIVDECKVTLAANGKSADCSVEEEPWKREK
# Method: as §1, §2
# hEAAT2 mutant I464V = molecular target: T3, hEAAT2 mutant I464V (Homo sapiens, UniProt P43004, I464V); assay: whole-cell patch-clamp, hEAAT2 mutant I464V in HEK293T cells; type: cell-based; details: for glutamate-induced current, normalized (MEAN): I464V, 0 mV
# T3 construct: Strep Tag II (N); superfolder GFP (sfGFP) (N); expressed in transfected cells; host or cells: HEK293T
# T3 sequence (P43004 whole entry I464V): as the sequence (P43004 whole entry S441G) above, with G441S, I464V counted along it
# Method: as §1, §2
# hEAAT2 mutant L467I = molecular target: T4, hEAAT2 mutant L467I (Homo sapiens, UniProt P43004, L467I); assay: whole-cell patch-clamp, hEAAT2 mutant L467I in HEK293T cells; type: cell-based; details: for glutamate-induced current, normalized (MEAN): L467I, 0 mV
# T4 construct: Strep Tag II (N); superfolder GFP (sfGFP) (N); expressed in transfected cells; host or cells: HEK293T
# T4 sequence (P43004 whole entry L467I): as the sequence (P43004 whole entry S441G) above, with G441S, L467I counted along it
# Method: as §1, §2
# hEAAT2 = details: ref PMID: 7521911; cited from earlier work
# hEAAT2 mutant D475A = molecular target: T5, hEAAT2 mutant D475A (Homo sapiens, UniProt P43004, D475A); assay: whole-cell patch-clamp, hEAAT2 mutant D475A in HEK293T cells; type: cell-based
# T5 construct: Strep Tag II (N); superfolder GFP (sfGFP) (N); expressed in transfected cells; host or cells: HEK293T
# T5 sequence (P43004 whole entry D475A): as the sequence (P43004 whole entry S441G) above, with G441S, D475A counted along it
# Method: as §1, §2
# hEAAT2 mutant R478A = molecular target: T6, hEAAT2 mutant R478A (Homo sapiens, UniProt P43004, R478A); assay: whole-cell patch-clamp, hEAAT2 mutant R478A in HEK293T cells; type: cell-based
# T6 construct: Strep Tag II (N); superfolder GFP (sfGFP) (N); expressed in transfected cells; host or cells: HEK293T
# T6 sequence (P43004 whole entry R478A): as the sequence (P43004 whole entry S441G) above, with G441S, R478A counted along it
# Method: as §1, §2
# hEAAT2 mutant V468I = molecular target: T7, hEAAT2 mutant V468I (Homo sapiens, UniProt P43004, V468I); assay: whole-cell patch-clamp, hEAAT2 mutant V468I in HEK293T cells; type: cell-based; details: for glutamate-induced current, normalized (MEAN): V468I, 0 mV
# T7 construct: Strep Tag II (N); superfolder GFP (sfGFP) (N); expressed in transfected cells; host or cells: HEK293T
# T7 sequence (P43004 whole entry V468I): as the sequence (P43004 whole entry S441G) above, with G441S, V468I counted along it
# Method: as §1, §2
# [1] = 3 μM glutamate, normalized to current at 1000 μM
# [2] = 10 μM glutamate, normalized to current at 1000 μM
# [3] = 30 μM glutamate, normalized to current at 1000 μM
# [4] = 100 μM glutamate, normalized to current at 1000 μM
# [5] = 300 μM glutamate, normalized to current at 1000 μM
# [6] = 1000 μM glutamate, normalization reference
# T1 sequence (P43004 whole entry, the tested form may be a part): as the sequence (P43004 whole entry S441G) above, with G441S counted along it
compound,measurement,setting,value
N[C@@H](CCC(=O)O)C(=O)O [glutamate],"glutamate-induced current, normalized (MEAN)","wild-type hEAAT2; 3 μM glutamate, WT, 0 mV, normalized to current at 1000 μM glutamate",0.1101
same,"glutamate-induced current, normalized (MEAN)","wild-type hEAAT2; 10 μM glutamate, WT, 0 mV, normalized to current at 1000 μM glutamate",0.2265
same,"glutamate-induced current, normalized (MEAN)","wild-type hEAAT2; 30 μM glutamate, WT, 0 mV, normalized to current at 1000 μM glutamate",0.5388
same,"glutamate-induced current, normalized (MEAN)","wild-type hEAAT2; 100 μM glutamate, WT, 0 mV, normalized to current at 1000 μM glutamate",0.751
same,"glutamate-induced current, normalized (MEAN)","wild-type hEAAT2; 300 μM glutamate, WT, 0 mV, normalized to current at 1000 μM glutamate",0.9307
same,glutamate-related current density (MEAN),"wild-type hEAAT2; 1mM Glutamate, WT, 0 mV, Na+ dependent leak current subtracted",-27.6784 pA/pF
same,"glutamate-induced current, normalized (MEAN)","wild-type hEAAT2; 1000 μM glutamate, WT, 0 mV, normalization reference",1
same,effect of substrate on anion leak currents,wild-type hEAAT2; wild-type hEAAT2,increased the amplitudes of anion leak currents
same,Km,"wild-type hEAAT2; wild-type hEAAT2, HEK293T, 0 mV, Michaelis-Menten-like fit, read-out: apparent Km (activation of anion current)",30 ± 2.5 µM
same,Km,hEAAT3,62 µM
same,Km,hEAAT1,48 µM
same,"glutamate-induced current, normalized (MEAN)",hEAAT2 mutant S441G; 0.1 μM glutamate,0.1494
same,"glutamate-induced current, normalized (MEAN)",hEAAT2 mutant S441G; 0.3 μM glutamate,0.4931
same,"glutamate-induced current, normalized (MEAN)",hEAAT2 mutant S441G; 1 μM glutamate,0.73
same,"glutamate-induced current, normalized (MEAN)",hEAAT2 mutant S441G; 3 μM glutamate,0.9123
same,"glutamate-induced current, normalized (MEAN)",hEAAT2 mutant S441G; 10 μM glutamate,1
same,"glutamate-induced current, normalized (MEAN)",hEAAT2 mutant S441G; 30 μM glutamate,1.038
same,Km,"hEAAT2 mutant S441G; S441G mutant, read-out: apparent Km",400 ± 30 nM
same,"glutamate-induced current, normalized (MEAN)",hEAAT2 mutant I464V; [1],0.1004
same,"glutamate-induced current, normalized (MEAN)",hEAAT2 mutant I464V; [2],0.2675
same,"glutamate-induced current, normalized (MEAN)",hEAAT2 mutant I464V; [3],0.5257
same,"glutamate-induced current, normalized (MEAN)",hEAAT2 mutant I464V; [4],0.7538
same,"glutamate-induced current, normalized (MEAN)",hEAAT2 mutant I464V; [5],0.9218
same,"glutamate-induced current, normalized (MEAN)",hEAAT2 mutant I464V; [6],1
same,activation of anion current,"hEAAT2 mutant I464V; I464V mutant, glutamate in external solution",significantly activate anion current with similar efficacy as that of wild-type hEAAT2
same,"glutamate-induced current, normalized (MEAN)",hEAAT2 mutant L467I; [1],0.09492
same,"glutamate-induced current, normalized (MEAN)",hEAAT2 mutant L467I; [2],0.2532
same,"glutamate-induced current, normalized (MEAN)",hEAAT2 mutant L467I; [3],0.5328
same,"glutamate-induced current, normalized (MEAN)",hEAAT2 mutant L467I; [4],0.7948
same,"glutamate-induced current, normalized (MEAN)",hEAAT2 mutant L467I; [5],0.9242
same,"glutamate-induced current, normalized (MEAN)",hEAAT2 mutant L467I; [6],1
same,activation of anion current,"hEAAT2 mutant L467I; L467I mutant, glutamate in external solution",significantly activate anion current with similar efficacy as that of wild-type hEAAT2
same,Km,hEAAT2,97 µM
same,glutamate-related current density (MEAN),"hEAAT2 mutant D475A; 1mM Glutamate, D475A, 0 mV, Na+ dependent leak current subtracted",1.113 pA/pF
same,activation of anion currents,"hEAAT2 mutant D475A; D475A mutant, glutamate up to 1 mM",failed to activate anion currents
same,glutamate-related current density (MEAN),"hEAAT2 mutant R478A; 1mM Glutamate, R478A, 0 mV, Na+ dependent leak current subtracted",0.4954 pA/pF
same,activation of anion currents,"hEAAT2 mutant R478A; R478A mutant, glutamate up to 1 mM",failed to activate anion currents
same,"glutamate-induced current, normalized (MEAN)",hEAAT2 mutant V468I; [1],0.1059
same,"glutamate-induced current, normalized (MEAN)",hEAAT2 mutant V468I; [2],0.2526
same,"glutamate-induced current, normalized (MEAN)",hEAAT2 mutant V468I; [3],0.5136
same,"glutamate-induced current, normalized (MEAN)",hEAAT2 mutant V468I; [4],0.8108
same,"glutamate-induced current, normalized (MEAN)",hEAAT2 mutant V468I; [5],0.9282
same,"glutamate-induced current, normalized (MEAN)",hEAAT2 mutant V468I; [6],1
same,activation of anion current,"hEAAT2 mutant V468I; V468I mutant, glutamate in external solution",significantly activate anion current with similar efficacy as that of wild-type hEAAT2
N[C@@H](CC(=O)O)C(=O)O [aspartate],Km,hEAAT3,47 µM
same,Km,hEAAT1,60 µM
same,Km,hEAAT2,54 µM
